Measurements published in ChEMBL document CHEMBL1909046, “DrugMatrix in vitro pharmacology data”.

Tests used:
D(3) dopamine receptor = D(3) dopamine receptor (Homo sapiens, UniProt P35462); experiment: DRUGMATRIX: Dopamine D3 radioligand binding (ligand: [3H] Spiperone); type: cell membranes, CHO, Membrane
[1] = DRUGMATRIX: Glutamate, NMDA, Phencyclidine radioligand binding (ligand: [3H] TCP); type: cell membranes, Rattus norvegicus, Wistar, Cerebral cortex, Membrane; conditions: Not Active = under 50% inhibition at 10 µM
Mu-type opioid receptor = Mu-type opioid receptor (Homo sapiens, UniProt P35372); experiment: DRUGMATRIX: Opiate mu (OP3, MOP) radioligand binding (ligand: [3H] Diprenorphine); type: cell membranes, CHO-K1, Membrane; conditions: cho-k1; Not Active = under 50% inhibition at 10 µM
Progesterone receptor = target: T1, Progesterone receptor (Bos taurus, UniProt Q690N0); experiment: DRUGMATRIX: Progesterone radioligand binding (ligand: [3H] R-5020); type: tissue-based, Uterus; conditions: Not Active = under 50% inhibition at 10 µM; for Ki: read-out: Ki
T1 sequence (Q690N0 whole entry): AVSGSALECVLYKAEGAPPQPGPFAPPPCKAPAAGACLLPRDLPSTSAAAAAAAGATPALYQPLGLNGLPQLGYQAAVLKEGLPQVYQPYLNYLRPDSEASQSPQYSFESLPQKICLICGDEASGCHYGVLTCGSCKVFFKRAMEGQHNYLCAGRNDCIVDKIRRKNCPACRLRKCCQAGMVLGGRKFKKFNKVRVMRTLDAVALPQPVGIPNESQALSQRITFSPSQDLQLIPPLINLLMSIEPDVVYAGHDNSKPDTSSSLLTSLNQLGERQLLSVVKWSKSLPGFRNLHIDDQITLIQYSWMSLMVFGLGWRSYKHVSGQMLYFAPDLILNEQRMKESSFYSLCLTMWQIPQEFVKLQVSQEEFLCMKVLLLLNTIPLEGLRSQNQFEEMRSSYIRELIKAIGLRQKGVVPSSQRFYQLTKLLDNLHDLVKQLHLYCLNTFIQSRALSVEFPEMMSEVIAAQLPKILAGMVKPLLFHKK

Neutrophil elastase = target: T2, Neutrophil elastase (Homo sapiens, UniProt P08246); type: tissue-based;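 note: inhibition of neutrophil elastase enzyme activity, measured with a p-nitroanilide-linked peptide substrate; in other assays of this panel Not Active means under 50% inhibition at 10 µM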
T2 sequence (P08246 whole entry): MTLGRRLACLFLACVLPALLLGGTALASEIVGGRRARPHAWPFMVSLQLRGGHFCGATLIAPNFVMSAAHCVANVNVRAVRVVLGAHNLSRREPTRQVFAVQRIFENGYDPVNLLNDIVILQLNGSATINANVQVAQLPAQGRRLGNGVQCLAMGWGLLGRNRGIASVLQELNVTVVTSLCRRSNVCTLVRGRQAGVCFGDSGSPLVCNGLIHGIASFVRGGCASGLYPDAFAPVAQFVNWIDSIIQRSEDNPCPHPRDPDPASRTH

[2] = target: Mitogen-activated protein kinase 1 (Homo sapiens, UniProt P28482); experiment: DRUGMATRIX: Protein Serine/Threonine Kinase, ERK2 enzyme inhibition (substrate: Myelin Basic Protein); set-up: species or system Escherichia coli; conditions: Not Active = under 50% inhibition at 10 µM
Cytochrome P450 2C9 = Cytochrome P450 2C9 (Homo sapiens, UniProt P11712); conditions: bti-tn-5b1-4; note: in other assays of this panel Not Active means under 50% inhibition at 10 µM
Cytochrome P450 2C9, sequence (P11712 whole entry): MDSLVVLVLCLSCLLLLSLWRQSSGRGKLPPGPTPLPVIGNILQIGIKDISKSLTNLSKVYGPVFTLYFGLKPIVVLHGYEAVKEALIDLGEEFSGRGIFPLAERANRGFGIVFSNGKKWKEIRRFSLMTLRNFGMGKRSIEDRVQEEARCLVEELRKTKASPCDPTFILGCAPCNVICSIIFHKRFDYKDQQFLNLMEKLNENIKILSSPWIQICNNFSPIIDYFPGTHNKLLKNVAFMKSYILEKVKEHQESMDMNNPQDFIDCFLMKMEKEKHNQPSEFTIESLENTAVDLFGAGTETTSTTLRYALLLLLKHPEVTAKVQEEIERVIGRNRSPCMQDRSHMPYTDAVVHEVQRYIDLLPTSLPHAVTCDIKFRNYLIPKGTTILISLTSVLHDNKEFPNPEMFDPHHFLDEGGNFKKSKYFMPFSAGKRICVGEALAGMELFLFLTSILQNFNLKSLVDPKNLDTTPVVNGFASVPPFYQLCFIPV

D(3) dopamine receptor, sequence (P35462 whole entry): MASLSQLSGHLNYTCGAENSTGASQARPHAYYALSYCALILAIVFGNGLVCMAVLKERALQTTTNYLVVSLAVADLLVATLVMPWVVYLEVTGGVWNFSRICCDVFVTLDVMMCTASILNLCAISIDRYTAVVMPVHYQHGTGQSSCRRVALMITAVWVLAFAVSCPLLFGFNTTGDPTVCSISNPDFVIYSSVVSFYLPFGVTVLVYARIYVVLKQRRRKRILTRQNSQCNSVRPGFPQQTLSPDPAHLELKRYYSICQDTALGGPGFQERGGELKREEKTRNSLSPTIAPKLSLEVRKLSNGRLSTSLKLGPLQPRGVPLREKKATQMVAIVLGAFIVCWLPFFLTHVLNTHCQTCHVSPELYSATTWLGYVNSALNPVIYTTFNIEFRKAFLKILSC
Mu-type opioid receptor, sequence (P35372 whole entry): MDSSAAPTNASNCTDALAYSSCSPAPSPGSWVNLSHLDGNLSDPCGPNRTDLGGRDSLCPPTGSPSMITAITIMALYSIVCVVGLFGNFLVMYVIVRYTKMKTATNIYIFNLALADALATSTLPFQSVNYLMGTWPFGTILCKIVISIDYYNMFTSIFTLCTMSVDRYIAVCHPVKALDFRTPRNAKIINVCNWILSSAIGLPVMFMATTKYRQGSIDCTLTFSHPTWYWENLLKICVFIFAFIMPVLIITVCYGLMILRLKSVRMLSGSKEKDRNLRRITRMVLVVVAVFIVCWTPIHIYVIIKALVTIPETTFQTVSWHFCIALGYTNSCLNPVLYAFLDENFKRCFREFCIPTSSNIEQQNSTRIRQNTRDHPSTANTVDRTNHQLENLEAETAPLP
Mitogen-activated protein kinase 1, sequence (P28482 whole entry): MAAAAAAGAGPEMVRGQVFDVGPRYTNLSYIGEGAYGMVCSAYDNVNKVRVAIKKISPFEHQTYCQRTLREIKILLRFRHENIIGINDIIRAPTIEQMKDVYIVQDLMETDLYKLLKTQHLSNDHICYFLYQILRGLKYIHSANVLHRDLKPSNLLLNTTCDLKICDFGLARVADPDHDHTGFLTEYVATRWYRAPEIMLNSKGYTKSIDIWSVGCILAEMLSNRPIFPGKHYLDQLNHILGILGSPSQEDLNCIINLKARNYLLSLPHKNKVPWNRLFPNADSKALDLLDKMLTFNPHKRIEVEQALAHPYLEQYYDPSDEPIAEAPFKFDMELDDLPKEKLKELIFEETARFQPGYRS

Row | Compound | IC50 (D(3) dopamine receptor; cho) | IC50 [1] | Ki [1] | IC50 (Mu-type opioid receptor) | IC50 (Progesterone receptor) | IC50 (Neutrophil elastase) | IC50 [2] | IC50 (Cytochrome P450 2C9) | Ki (Cytochrome P450 2C9) | IC50 (D(3) dopamine receptor; read-out: IC50) [nM] | Ki (D(3) dopamine receptor; read-out: Ki) [nM] | IC50 (Progesterone receptor; read-out: IC50) [nM] | Ki (Progesterone receptor) [nM]
1 | CCCOc1ccc(C(=O)OCCN(CC)CC)cc1N [PROPARACAINE] | Not Active | Not Active | Not Active | Not Active | Not Active | Not Active | Not Active | Not Active | Not Active |  |  |  | 
2 | CC(=O)[C@H]1[C@H](C#N)C[C@H]2[C@@H]3CC=C4C[C@@H](O)CC[C@]4(C)[C@H]3CC[C@@]21C [PREGNENOLONE CARBONITRILE] | Not Active | Not Active | Not Active | Not Active | Not Active | Not Active | Not Active | Not Active | Not Active |  |  |  | 
3 | CN(C)CC[C@@H](c1ccc(Cl)cc1)c1ccccn1 [DEXCHLORPHENIRAMINE] | Not Active | Not Active | Not Active | Not Active | Not Active | Not Active | Not Active | Not Active | Not Active |  |  |  | 
4 | CC[C@H](C)[C@H]1O[C@]2(C=C[C@@H]1C)C[C@@H]1C[C@@H](C/C=C(\C)[C@@H](O[C@H]3C[C@H](OC)[C@@H](O[C@H]4C[C@H](OC)[C@@H](O)[C@H](C)O4)[C@H](C)O3)[C@@H](C)/C=C/C=C3\CO[C@@H]4[C@H](O)C(C)=C[C@@H](C(=O)O1)[C@]34O)O2.CO[C@H]1C[C@H](O[C@H]2[C@H](C)O[C@@H](O[C@@H]3/C(C)=C/C[C@@H]4C[C@@H](C[C@]5(C=C[C@H](C)[C@@H](C(C)C)O5)O4)OC(=O)[C@@H]4C=C(C)[C@@H](O)[C@H]5OC/C(=C\C=C\[C@@H]3C)[C@]54O)C[C@@H]2OC)O[C@@H](C)[C@@H]1O [ABAMECTIN] | Not Active | Not Active | Not Active | Not Active | Not Active | Not Active | Not Active | Not Active | Not Active |  |  |  | 
5 | CN(C)[C@@H]1C(O)=C(C(N)=O)C(=O)[C@@]2(O)C(O)=C3C(=O)c4c(O)ccc(Cl)c4[C@@](C)(O)[C@H]3C[C@@H]12 [CHLORTETRACYCLINE] | Not Active | Not Active | Not Active | Not Active | Not Active | Not Active | Not Active | Not Active | Not Active |  |  |  | 
6 | Nc1ccn([C@@H]2O[C@H](CO)[C@@H](O)[C@@H]2O)c(=O)n1 [CYTARABINE] | Not Active | Not Active | Not Active | Not Active | Not Active | Not Active | Not Active | Not Active | Not Active |  |  |  | 
7 | Cc1cc2c(OCC(CNC(C)(C)C)OC(=O)c3ccccc3)cccc2[nH]1 (centres undefined) [BOPINDOLOL] | Not Active | Not Active | Not Active | Not Active | Not Active | Not Active | Not Active | Not Active | Not Active |  |  |  | 
8 | CC(=O)O[C@H]1C(=O)[C@@]2(C)[C@H]([C@H](OC(=O)c3ccccc3)[C@]3(O)C[C@H](OC(=O)[C@H](O)[C@@H](NC(=O)c4ccccc4)c4ccccc4)C(C)=C1C3(C)C)[C@]1(OC(C)=O)CO[C@@H]1C[C@@H]2O [PACLITAXEL] | Not Active | Not Active | Not Active | Not Active | Not Active | Not Active | Not Active | Not Active | Not Active |  |  |  | 
9 | Nc1ccn([C@@H]2O[C@H](CO)[C@@H](O)C2(F)F)c(=O)n1 [GEMCITABINE] | Not Active | Not Active | Not Active | Not Active | Not Active | Not Active | Not Active | Not Active | Not Active |  |  |  | 
10 | COc1cc(N)c(Cl)cc1C(=O)NC1CCN(CCCOc2ccc(F)cc2)CC1OC (centres undefined) [CISAPRIDE] |  | Not Active | Not Active | Not Active | Not Active | Not Active | Not Active | Not Active | Not Active | 144 | 49 |  | 
11 | CCC1(CCC(C)C)C(=O)NC(=O)NC1=O [AMOBARBITAL] | Not Active | Not Active | Not Active | Not Active | Not Active | Not Active | Not Active | Not Active | Not Active |  |  |  | 
12 | O=C(O)c1cccnc1Nc1cccc(C(F)(F)F)c1 [NIFLUMIC ACID] | Not Active | Not Active | Not Active | Not Active | Not Active | Not Active | Not Active | Not Active | Not Active |  |  |  | 
13 | C=CCc1ccc(O)c(OC)c1 [EUGENOL] | Not Active | Not Active | Not Active | Not Active | Not Active | Not Active | Not Active | Not Active | Not Active |  |  |  | 
14 | COc1ccc2[nH]cc(CCNC(C)=O)c2c1 [MELATONIN] | Not Active | Not Active | Not Active | Not Active | Not Active | Not Active | Not Active | Not Active | Not Active |  |  |  | 
15 | N=C(N)NC(=O)Cc1c(Cl)cccc1Cl [GUANFACINE] | Not Active | Not Active | Not Active | Not Active | Not Active | Not Active | Not Active | Not Active | Not Active |  |  |  | 
16 | COc1cc2nc(N3CCN(C(=O)c4ccco4)CC3)nc(N)c2cc1OC [PRAZOSIN] | Not Active | Not Active | Not Active | Not Active | Not Active | Not Active | Not Active | Not Active | Not Active |  |  |  | 
17 | CC(C)NNC(=O)c1ccncc1 [IPRONIAZID] | Not Active | Not Active | Not Active | Not Active | Not Active | Not Active | Not Active | Not Active | Not Active |  |  |  | 
18 | CC(C(=O)O)c1cccc(Oc2ccccc2)c1 (centres undefined) [FENOPROFEN] | Not Active | Not Active | Not Active | Not Active | Not Active | Not Active | Not Active | Not Active | Not Active |  |  |  | 
19 | O=C(O)CCNC(=O)c1ccccc1 [BETAMIPRON] | Not Active | Not Active | Not Active | Not Active | Not Active | Not Active | Not Active | Not Active | Not Active |  |  |  | 
20 | C#C[C@]1(OC(C)=O)CC[C@H]2[C@@H]3CCC4=C[C@@H](OC(C)=O)CC[C@@H]4[C@H]3CC[C@@]21C [ETHYNODIOL DIACETATE] | Not Active | Not Active | Not Active | Not Active |  | Not Active | Not Active | Not Active | Not Active |  |  | 160 | 21
21 | Oc1cccc(O)c1O [PYROGALLOL] | Not Active | Not Active | Not Active | Not Active | Not Active | Not Active | Not Active | Not Active | Not Active |  |  |  | 
22 | CN/C(=N\CCSCc1nc[nH]c1C)NC#N [CIMETIDINE] | Not Active | Not Active | Not Active | Not Active | Not Active | Not Active | Not Active | Not Active | Not Active |  |  |  | 
23 | CCCN(CCC)S(=O)(=O)c1ccc(C(=O)O)cc1 [PROBENECID] | Not Active | Not Active | Not Active | Not Active | Not Active | Not Active | Not Active | Not Active | Not Active |  |  |  | 
24 | C#CC1(O)CC[C@H]2[C@@H]3CCC4=CC(=O)CC[C@@H]4[C@H]3CC[C@@]21CC (some centres undefined) [NORGESTREL] | Not Active | Not Active | Not Active | Not Active |  | Not Active | Not Active | Not Active | Not Active |  |  | 3.51 | 0.458
